Reference: article PMC7111280 (European Journal of Medicinal Chemistry, 2018)

Tests used:
[1] = system: Hel cells; details: Table 5, HSV/vaccinia assays, Hel cell morphology
[2] = system: HSV-1 (TK−) KOS ACVr; test: microbe, parasite or virus in culture; type: cell-based, herpes simplex virus type 1; details: Human alphaherpesvirus 1, HEL, read-out: HSV-1 (TK−) KOS ACVr EC50
[3] = system: vaccinia virus; test: microbe, parasite or virus in culture; type: cell-based; details: Orthopoxvirus vaccinia, HEL, read-out: vaccinia virus EC50
[4] = system: CMV (AD-169); test: Antiviral cytopathicity assay in Hel cells; type: cell-based, human cytomegalovirus
[5] = system: L1210; details: read-out: L1210 IC50; proliferation, Coulter Counter cell count; cited from earlier work
[6] = system: CEM; details: read-out: CEM IC50; proliferation, Coulter Counter cell count; cited from earlier work
[7] = system: HeLa; details: read-out: HeLa IC50; proliferation, Coulter Counter cell count; cited from earlier work
[8] = system: HMVEC; test: Endothelial cell proliferation, Coulter counter; type: cell-based; details: Homo sapiens, 96 h, read-out: HMVEC IC50
[9] = system: MDA-MB-231-LM2 cells; test: Metastatic breast cancer xenograft mouse model; type: in vivo, SCID mice

Compound: C#C[C@@]1(O)[C@@H](CO)O[C@@H](n2cc(I)c3c(Cl)ccnc32)[C@@H]1O [Compound 68, 3-iodo-4-chloro-N1-(3′-C-ethynyl-β-D-ribofuranosyl)-pyrrolo[2,3-b]pyridine]
- MCC (minimal cytotoxic concentration) [1]: >100 µM

Compound: Nc1ccn(C[C@@H](CO)OCP(=O)(O)O)c(=O)n1.O.O [Cidofovir]
- EC50 [2]: 2000 nM
- EC50 [3]: 22000 nM
- MCC (minimal cytotoxic concentration) [1]: >250 µM

Compound: C#C[C@@]1(O)[C@@H](CO)O[C@@H](n2cc(Cl)c3c(Cl)ccnc32)[C@@H]1O [Compound 66, 3,4-dichloro-N1-(3′-C-ethynyl-β-D-ribofuranosyl)-pyrrolo[2,3-b]pyridine]
- selectivity index ([4]; human cytomegalovirus (hCMV)): 10 fold
- MCC (minimal cytotoxic concentration) [1]: ≥100 µM

Compound: C#C[C@@]1(O)[C@@H](CO)O[C@@H](n2cc(Br)c3c(Cl)ccnc32)[C@@H]1O [Compound 67, 3-bromo-4-chloro-N1-(3′-C-ethynyl-β-D-ribofuranosyl)-pyrrolo[2,3-b]pyridine]
- MCC (minimal cytotoxic concentration) [1]: >100 µM

Compound: C#C[C@@]1(O)[C@@H](CO)O[C@@H](n2ccc3c(Cl)ccnc32)[C@@H]1O [Compound 70, 4-chloro-N1-(3′-C-ethynyl-β-D-ribofuranosyl)-pyrrolo[2,3-b]pyridine]
- activity against hCMV [4]: inactive
- MCC (minimal cytotoxic concentration) [1]: >100 µM

Compound: C#C[C@@]1(O)[C@@H](CO)O[C@@H](n2cnc3c(N)ncnc32)[C@@H]1O [Compound 5, 3′-C-ethynyladenosine]
- EC50 [3]: 350 ± 50 nM
- IC50 [5]: 730 ± 140 nM
- IC50 [6]: 610 ± 80 nM
- IC50 [7]: 290 ± 110 nM

Compound: Nc1nc2c(ncn2COCCO)c(=O)[nH]1 [Acyclovir, reference compound]
- MCC (minimal cytotoxic concentration) [1]: >250 µM

Compound: Nc1nc(O)c2ncn(COC(CO)CO)c2n1 [Ganciclovir, reference compound]
- MCC (minimal cytotoxic concentration) [1]: >100 µM

Compound: C#C[C@@]1(O)[C@@H](CO)O[C@@H](n2cc(I)c3c(N)ncnc32)[C@@H]1O [Compound 34, 4-amino-5-iodo-N7-(3′-C-ethynyl-β-D-ribofuranosyl)-pyrrolo[2,3-d]pyrimidine]
- IC50 [8]: < 1.28 nM

Compound: C#C[C@@]1(O)[C@@H](CO)O[C@@H](n2cc(F)c3c(N)ncnc32)[C@@H]1O [Compound 31, 4-amino-5-fluoro-N7-(3′-C-ethynyl-β-D-ribofuranosyl)-pyrrolo[2,3-d]pyrimidine]
- IC50 [8]: < 1.28 nM

Compound: C#C[C@@]1(O)[C@@H](CO)O[C@@H](n2cc(Cl)c3c(N)ncnc32)[C@@H]1O [Compound 32, 4-amino-5-chloro-N7-(3′-C-ethynyl-β-D-ribofuranosyl)-pyrrolo[2,3-d]pyrimidine]
- IC50 [8]: < 1.28 nM
- tumor growth (BLI radiance, caliper) ([9]; 0.3 mg/kg i.t., starting from day 18, after four i.t. injections): significantly retarded
- total metastasis burden in the lungs (BLI) ([9]; day 34 versus vehicle control group): significantly lower
